The values below come from PubChem BioAssay AID434987 (Southern Research Specialized Biocontainment Screening …, 2010).

The source made the active and inactive calls. The rule behind the calls is not given here. Where only a bound is given, the exact number is not on record here.

The subject of this test is M. tuberculosis H37Rv growth inhibition with meropenem. Nature of the test: dose response, H37Rv, with and without meropenem (AID 434987).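 Note: growth over 7 days at 37 °C before Alamar Blue read on day 9.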
Setting [1] is: M. tuberculosis H37Rv growth inhibition, measured here: IC50 without meropenem.
Where [2] appears, read: M. tuberculosis H37Rv growth inhibition, measured here: IC90 without meropenem.
Setting [3] is: measured here: IC90 with meropenem.

For the compound `Cc1onc(-c2c(Cl)cccc2Cl)c1/C(N)=N/OC(=O)C1CC1`, the IC50 (commonly the concentration at which inhibition is half-maximal) is 2.05 µM. Moreover, the concentration for half-maximal inhibition (IC50) under setting [1] is > 100 µM. The IC90 (commonly the concentration needed for an effect of 90%) under setting [2] is > 100 µM. Also, the IC90 under setting [3] is > 25 µM.
Turning to `O=c1[nH]c(CSc2nnc3ccccn23)nc2ccccc12`, the IC50 is > 100 µM (inactive). Besides, under setting [1], the IC50 is > 100 µM. Further, the 90% effect concentration (IC90) under setting [2] is > 100 µM. Under setting [3], the IC90 is > 100 µM.
`Cc1ccc(NC(=O)/C=C\C(=O)O)c([N+](=O)[O-])c1`: the IC50 was 56.7 µM (inactive). This compound had an IC50 under setting [1] of 95.7 µM. Besides, under setting [2], the IC90 was > 100 µM. Further, the IC90 under setting [3] was > 100 µM.
In the case of `Cc1noc(/C=C/Nc2ccc(F)cc2F)c1[N+](=O)[O-]`, the IC50 is > 100 µM (inactive). Besides, the IC50 under setting [1] was > 100 µM. Moreover, the IC90 under setting [2] is > 100 µM. The IC90 under setting [3] is > 100 µM.
For the compound `C[C@H](NC(=O)c1[nH]cnc1C(=O)Nc1cccc(Cl)c1)c1ccccc1`, the IC50 was 3.59 µM. Moreover, the IC50 under setting [1] was > 100 µM. For the same compound, under setting [2], the IC90 is > 100 µM. For the same compound, the IC90 under setting [3] was > 100 µM.
`CSc1cccc(NC(=O)c2ccc(Cl)nc2)c1`: the IC50 is > 100 µM (inactive). Besides, the IC50 under setting [1] was > 100 µM. The IC90 under setting [2] is > 100 µM. The IC90 under setting [3] was > 100 µM.
`COc1ccc(C(=O)Nc2nc3ccc(OC)cc3s2)cc1`: the concentration for half-maximal inhibition (IC50) was 21.2 µM. Under setting [1], this compound yielded an IC50 of 65.1 µM. Besides, the IC90 under setting [2] was > 100 µM. For the same compound, the IC90 under setting [3] was > 100 µM.
Consider `CC1=NN(c2ccccc2)C(=O)/C1=C/c1c(O)[nH]c(=S)[nH]c1=O`, for which the IC50 was > 100 µM (inactive). In addition, the IC50 under setting [1] is > 100 µM. Under setting [2], the IC90 is > 100 µM. Besides, the 90% effect concentration (IC90) under setting [3] was > 100 µM.
As to `C[C@@H]1CC=C[C@H]2[C@H]1C(=O)N(Cc1ccccc1)[C@H]2c1ccc(/C=C/c2ccccc2)cc1F`, the IC50 was > 100 µM (inactive). Also, the IC50 under setting [1] is > 100 µM. The IC90 under setting [2] was > 100 µM. For the same compound, the IC90 under setting [3] is > 100 µM.
For `Cc1cc(NC(=O)CSc2nc(C(C)C)nc3sc4c(c23)CCCC4)no1`, the IC50 is > 100 µM (inactive). Besides, under setting [1], the IC50 is > 100 µM. In addition, the IC90 under setting [2] was > 100 µM. Under setting [3], the IC90 is > 100 µM.
On to `COc1ccc(OC)c(-c2cc(C(=O)Nc3c(C)n(C)n(-c4ccccc4)c3=O)no2)c1`, for which the IC50 is 17.1 µM. The IC50 under setting [1] is 54 µM. The IC90 under setting [2] was > 100 µM. The compound further showed an IC90 under setting [3] of 49.5 µM.
Consider `Cc1cc(C(=O)Nc2nnc(-c3ccccc3)s2)no1`, for which the IC50 is 45.1 µM (inactive). Besides, the concentration for half-maximal inhibition (IC50) under setting [1] was found to be 48.4 µM. Besides, the IC90 under setting [2] is > 100 µM. Moreover, the 90% effect concentration (IC90) under setting [3] is > 100 µM.
With `C/C(=N\NC(=O)c1cc(Br)ccc1O)c1ccccn1`, the IC50 was 3.88 µM. The IC50 under setting [1] amounted to 94.9 µM. For the same compound, the IC90 under setting [2] is > 100 µM. Moreover, the IC90 under setting [3] was > 100 µM.
`Cc1ccc(S(=O)(=O)NCCCCCC(=O)Nc2nccs2)cc1`: the IC50 was > 100 µM (inactive). Moreover, the IC50 under setting [1] is > 100 µM. Moreover, under setting [2], the concentration for an effect of 90% (IC90) was > 100 µM. For the same compound, under setting [3], the IC90 was > 100 µM.
`c1ccc2c(c1)Cn1nc(Cc3nc4c(s3)CCCC4)nc1-2`: the IC50 is 47.5 µM (inactive). The IC50 under setting [1] came to 79.1 µM. Besides, under setting [2], the IC90 is > 100 µM. The 90% effect concentration (IC90) under setting [3] is 53 µM.
`COc1ccc(NC(=O)c2cc(Br)ccc2Cl)c(OC)c1`: the IC50 is 23.2 µM. In addition, the IC50 under setting [1] was > 100 µM. In addition, the IC90 under setting [2] is > 100 µM. In addition, the IC90 under setting [3] was > 100 µM.
On to `CN(/N=C/c1ccncc1)c1cnc2ccccc2n1`, for which the IC50 is 59.8 µM (inactive). Also, the IC50 under setting [1] was > 100 µM. For the same compound, the IC90 under setting [2] is > 100 µM. The IC90 under setting [3] is > 100 µM.
`COc1ccccc1CNC(=O)c1cc2c(C)nn(Cc3ccc(F)cc3)c2s1`: the IC50 is > 100 µM (inactive). Further, under setting [1], the IC50 was > 100 µM. The IC90 under setting [2] was > 100 µM. Further, the IC90 under setting [3] is > 100 µM.
Turning to `O=C(OC(C(=O)Nc1ccc(Cl)cc1C(F)(F)F)c1ccccc1)C1=COCCO1` (stereo not drawn), the IC50 is 1.23 µM. For the same compound, the IC50 under setting [1] is > 100 µM. Under setting [2], the IC90 was > 100 µM. For the same compound, the IC90 under setting [3] was > 100 µM.
Regarding `Cc1cc(NC(=O)/C=C/c2ccccc2Cl)n(-c2nc3ccccc3[nH]2)n1`, the IC50 was 1.94 µM. For the same compound, the concentration for half-maximal inhibition (IC50) under setting [1] was > 100 µM. In addition, the IC90 under setting [2] is > 100 µM. Also, under setting [3], the concentration for an effect of 90% (IC90) was > 100 µM.
Consider `COC(=O)c1c(CSc2cccc(C)c2)noc1C(=O)NCc1ccco1`, for which the IC50 is > 100 µM (inactive). Under setting [1], the IC50 was > 100 µM. In addition, the 90% effect concentration (IC90) under setting [2] is > 100 µM. The IC90 under setting [3] is > 100 µM.
For `COc1ccc(-c2cc(C(F)(F)F)nc(SCC(=O)Nc3sc4c(c3C#N)CCC4)n2)cc1`, the IC50 was 94 µM (inactive). The IC50 under setting [1] is > 100 µM. Further, under setting [2], the IC90 was > 100 µM. Also, the IC90 under setting [3] was > 100 µM.
